Laboratory results reported in US12234221B2, “Pyridine carboxamide compounds for inhibiting NAV1.8” (Lieber Institute, Inc., priority 2018, dated 2025).

Target: T1, human Nav1.8 (hNav1.8) ion channel (Homo sapiens, UniProt Q9Y5Y9)
T1 construct: expressed in transfected cells; host or cells: HEK293
Assay: Nav1.8 channel inhibition, estimated IC50 (one or more of: fluorescence inhibition assay, PatchXpress, IonFlux HT automated patch clamp)
Assay type: cell-based
Settings: HEK293 cells stably expressing hNav1.8; method used per compound not stated; read-out: Activity range (estimated IC50)
Procedure, shortened: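 HEK293 cells stably expressing hNav1.8 with β1/β2 subunits; IC50 from the fluorescence assay and/or automated whole-cell patch clamp (PatchXpress, IonFlux HT). Fluorescence: ANG-2 Na dye, 5 min compound preincubation (0.02–5 μM, 1% DMSO) with 30 μM ouabain, stimulation by 10 μM deltamethrin, peak signal fit logistically. PatchXpress: holding potential reset to Vhalf, inhibition normalized to control/washout currents.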

T1 sequence (Q9Y5Y9 whole entry): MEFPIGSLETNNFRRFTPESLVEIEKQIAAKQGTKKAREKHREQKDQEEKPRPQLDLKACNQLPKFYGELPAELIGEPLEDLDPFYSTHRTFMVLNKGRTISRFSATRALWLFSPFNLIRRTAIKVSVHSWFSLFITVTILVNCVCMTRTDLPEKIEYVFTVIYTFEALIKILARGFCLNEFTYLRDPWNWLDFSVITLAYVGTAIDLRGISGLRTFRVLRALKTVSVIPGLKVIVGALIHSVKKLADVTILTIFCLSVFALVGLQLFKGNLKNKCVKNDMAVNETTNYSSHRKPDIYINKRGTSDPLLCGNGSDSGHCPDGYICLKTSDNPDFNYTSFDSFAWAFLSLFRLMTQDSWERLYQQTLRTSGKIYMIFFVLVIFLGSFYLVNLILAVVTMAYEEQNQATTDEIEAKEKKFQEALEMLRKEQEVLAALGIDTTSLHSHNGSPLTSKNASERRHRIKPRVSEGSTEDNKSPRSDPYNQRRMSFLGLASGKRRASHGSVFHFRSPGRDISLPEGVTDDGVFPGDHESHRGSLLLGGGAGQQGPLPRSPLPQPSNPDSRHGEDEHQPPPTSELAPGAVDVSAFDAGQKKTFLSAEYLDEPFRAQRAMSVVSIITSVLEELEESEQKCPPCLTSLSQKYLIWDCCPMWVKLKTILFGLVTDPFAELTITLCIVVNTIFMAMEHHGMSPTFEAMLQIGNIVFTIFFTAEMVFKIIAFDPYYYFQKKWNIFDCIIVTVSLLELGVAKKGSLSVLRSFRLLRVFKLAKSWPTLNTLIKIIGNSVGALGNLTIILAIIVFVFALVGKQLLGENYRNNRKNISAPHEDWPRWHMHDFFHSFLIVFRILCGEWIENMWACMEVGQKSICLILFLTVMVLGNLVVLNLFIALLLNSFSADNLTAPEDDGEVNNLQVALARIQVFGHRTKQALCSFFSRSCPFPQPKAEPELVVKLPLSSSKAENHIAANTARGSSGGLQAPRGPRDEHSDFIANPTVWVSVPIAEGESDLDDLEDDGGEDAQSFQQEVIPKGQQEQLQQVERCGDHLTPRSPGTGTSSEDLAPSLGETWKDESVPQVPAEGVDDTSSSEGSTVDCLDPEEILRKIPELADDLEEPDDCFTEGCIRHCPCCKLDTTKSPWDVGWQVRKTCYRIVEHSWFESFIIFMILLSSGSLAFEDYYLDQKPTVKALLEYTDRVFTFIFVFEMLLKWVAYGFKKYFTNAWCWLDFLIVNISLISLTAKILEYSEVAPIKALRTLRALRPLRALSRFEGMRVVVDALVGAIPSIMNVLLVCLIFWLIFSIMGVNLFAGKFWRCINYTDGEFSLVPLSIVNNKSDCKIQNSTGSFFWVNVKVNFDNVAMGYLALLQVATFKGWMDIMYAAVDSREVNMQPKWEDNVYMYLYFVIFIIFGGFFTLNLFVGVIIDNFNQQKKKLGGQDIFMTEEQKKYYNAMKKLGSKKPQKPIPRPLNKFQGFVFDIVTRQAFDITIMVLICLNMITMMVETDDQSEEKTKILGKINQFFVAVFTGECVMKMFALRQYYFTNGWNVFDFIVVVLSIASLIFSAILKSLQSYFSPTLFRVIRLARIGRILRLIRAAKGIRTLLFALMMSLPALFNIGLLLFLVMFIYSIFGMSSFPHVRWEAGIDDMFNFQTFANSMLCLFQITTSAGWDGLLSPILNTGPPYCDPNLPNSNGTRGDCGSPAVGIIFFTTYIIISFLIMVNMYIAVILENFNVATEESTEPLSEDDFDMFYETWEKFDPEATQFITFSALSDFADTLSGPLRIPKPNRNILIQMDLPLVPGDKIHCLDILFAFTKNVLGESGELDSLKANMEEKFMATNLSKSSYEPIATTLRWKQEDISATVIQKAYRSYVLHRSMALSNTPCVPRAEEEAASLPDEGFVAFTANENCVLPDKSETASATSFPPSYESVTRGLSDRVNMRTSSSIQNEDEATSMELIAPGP

| SMILES | IC50 |
| --- | --- |
| COc1cc(F)ccc1Oc1cc(C(F)(F)F)ncc1C(=O)Nc1ccncc1 [Example 72, 4-(4-fluoro-2-methoxy-phenoxy)-N-(4-pyridyl)-6-(trifluoromethyl)pyridine-3-carboxamide] | < 500 nM |
| CN(C)c1cc(NC(=O)c2cnc(C(F)(F)F)cc2Oc2ccc(OC(F)(F)F)cc2Cl)ccn1 [Example 73, 4-[2-chloro-4-(trifluoromethoxy)phenoxy]-N-[2-(dimethylamino)-4-pyridyl]-6-(trifluoromethyl)pyridine-3-carboxamide] | > 1000 nM |
| CS(=O)(=O)c1cccc(NC(=O)c2cnc(C(F)(F)F)cc2Oc2ccc(OC(F)(F)F)cc2Cl)c1 [Example 74, 4-[2-chloro-4-(trifluoromethoxy)phenoxy]-N-(3-methylsulfonylphenyl)-6-(trifluoromethyl)pyridine-3-carboxamide] | < 500 nM |
| C[S+]([O-])c1cccc(NC(=O)c2cnc(C(F)(F)F)cc2Oc2ccc(OC(F)(F)F)cc2Cl)c1 (stereo not shown) [Example 75, 4-[2-chloro-4-(trifluoromethoxy)phenoxy]-N-(3-methylsulfinylphenyl)-6-(trifluoromethyl)pyridine-3-carboxamide] | < 500 nM |
| CN(C)S(=O)(=O)c1cccc(NC(=O)c2cnc(C(F)(F)F)cc2Oc2ccc(OC(F)(F)F)cc2Cl)c1 [Example 76, 4-[2-chloro-4-(trifluoromethoxy)phenoxy]-N-[3-(dimethylsulfamoyl)phenyl]-6-(trifluoromethyl)pyridine-3-carboxamide] | 500 to 1000 nM |
| CS(=O)(=O)c1ccc(F)c(NC(=O)c2cnc(C(F)(F)F)cc2Oc2ccc(OC(F)(F)F)cc2Cl)c1 [Example 77, 4-[2-chloro-4-(trifluoromethoxy)phenoxy]-N-(2-fluoro-5-methylsulfonyl-phenyl)-6-(trifluoromethyl)pyridine-3-carboxamide] | < 500 nM |
| O=C(Nc1cccnc1)c1cnc(C(F)(F)F)cc1Oc1ccc(OC(F)(F)F)cc1Cl [Example 78, 4-[2-chloro-4-(trifluoromethoxy)phenoxy]-N-(3-pyridyl)-6-(trifluoromethyl)pyridine-3-carboxamide] | < 500 nM |
| O=C(Nc1ccncc1)c1cnc(C(F)(F)F)cc1Oc1ccc(OC(F)(F)F)cc1Cl [Example 79, 4-[2-chloro-4-(trifluoromethoxy)phenoxy]-N-(4-pyridyl)-6-(trifluoromethyl)pyridine-3-carboxamide] | < 500 nM |
| CS(=N)(=O)c1cccc(NC(=O)c2cnc(C(F)(F)F)cc2Oc2ccc(OC(F)(F)F)cc2Cl)c1 (stereo not shown) [Example 80, 4-[2-chloro-4-(trifluoromethoxy)phenoxy]-N-[3-(methylsulfonimidoyl)phenyl]-6-(trifluoromethyl)pyridine-3-carboxamide] | < 500 nM |
| NC(=O)c1cccc(NC(=O)c2cnc(C(F)(F)F)cc2Oc2ccc(OC(F)(F)F)cc2Cl)c1 [Example 81, N-(3-carbamoylphenyl)-4-[2-chloro-4-(trifluoromethoxy)phenoxy]-6-(trifluoromethyl)pyridine-3-carboxamide] | < 500 nM |
| CN=S(C)(=O)c1cccc(NC(=O)c2cnc(C(F)(F)F)cc2Oc2ccc(OC(F)(F)F)cc2Cl)c1 (stereo not shown) [Example 82, 4-[2-chloro-4-(trifluoromethoxy)phenoxy]-N-[3-(N,S-dimethylsulfonimidoyl)phenyl]-6-(trifluoromethyl)pyridine-3-carboxamide] | < 500 nM |
| O=C(Nc1ccc[n+]([O-])c1)c1cnc(C(F)(F)F)cc1Oc1ccc(OC(F)(F)F)cc1Cl [Example 83, 4-[2-chloro-4-(trifluoromethoxy)phenoxy]-N-(1-oxidopyridin-1-ium-3-yl)-6-(trifluoromethyl)pyridine-3-carboxamide] | < 500 nM |
| COc1cc(F)ccc1Oc1cc(C(F)(F)F)ncc1C(=O)Nc1ccc[n+]([O-])c1 [Example 84, 4-(4-fluoro-2-methoxy-phenoxy)-N-(1-oxidopyridin-1-ium-3-yl)-6-(trifluoromethyl)pyridine-3-carboxamide] | 500 to 1000 nM |
| Cc1cc(F)ccc1Oc1cc(C(F)(F)F)ncc1C(=O)Nc1ccc[n+]([O-])c1 [Example 85, 4-(4-fluoro-2-methyl-phenoxy)-N-(1-oxidopyridin-1-ium-3-yl)-6-(trifluoromethyl)pyridine-3-carboxamide] | 500 to 1000 nM |
| O=C(Nc1ccc[n+]([O-])c1)c1cnc(C(F)(F)F)cc1Oc1ccc(OC(F)F)cc1 [Example 86, 4-[4-(difluoromethoxy)phenoxy]-N-(1-oxidopyridin-1-ium-3-yl)-6-(trifluoromethyl)pyridine-3-carboxamide] | 500 to 1000 nM |
| O=C(Nc1ccc[n+]([O-])c1)c1cnc(C(F)(F)F)cc1Oc1ccc(OC(F)(F)F)cc1 [Example 87, N-(1-oxidopyridin-1-ium-3-yl)-4-[4-(trifluoromethoxy)phenoxy]-6-(trifluoromethyl)pyridine-3-carboxamide] | < 500 nM |
| COc1ccc(Oc2cc(C(F)(F)F)ncc2C(=O)Nc2ccc[n+]([O-])c2)c(OC)c1 [Example 88, 4-(2,4-dimethoxyphenoxy)-N-(1-oxidopyridin-1-ium-3-yl)-6-(trifluoromethyl)pyridine-3-carboxamide] | < 500 nM |

| SMILES | IC50 |
| --- | --- |
| O=C(Nc1ccc[n+]([O-])c1)c1cnc(C(F)(F)F)cc1Oc1ccc(F)cc1F [Example 89, 4-(2,4-difluorophenoxy)-N-(1-oxidopyridin-1-ium-3-yl)-6-(trifluoromethyl)pyridine-3-carboxamide] | > 1000 nM |
| CS(=N)(=O)c1cccc(NC(=O)c2cnc(C(F)(F)F)cc2Oc2ccc(OC(F)(F)F)cc2)c1 (stereo not shown) [Example 91, N-[3-(methylsulfonimidoyl)phenyl]-4-[4-(trifluoromethoxy)phenoxy]-6-(trifluoromethyl)pyridine-3-carboxamide] | < 500 nM |
| CN=S(C)(=O)c1cccc(NC(=O)c2cnc(C(F)(F)F)cc2Oc2ccc(OC(F)(F)F)cc2)c1 (stereo not shown) [Example 92, N-[3-(N,S-dimethylsulfonimidoyl)phenyl]-4-[4-(trifluoromethoxy)phenoxy]-6-(trifluoromethyl)pyridine-3-carboxamide] | < 500 nM |
| Cc1cc(F)ccc1Oc1cc(C(F)(F)F)ncc1C(=O)Nc1cccc(S(C)(=N)=O)c1 (stereo not shown) [Example 93, 4-(4-fluoro-2-methyl-phenoxy)-N-[3-(methylsulfonimidoyl)phenyl]-6-(trifluoromethyl)pyridine-3-carboxamide] | > 1000 nM |
| CN=S(C)(=O)c1cccc(NC(=O)c2cnc(C(F)(F)F)cc2Oc2ccc(F)cc2C)c1 (stereo not shown) [Example 94, N-[3-(N,S-dimethylsulfonimidoyl)phenyl]-4-(4-fluoro-2-methyl-phenoxy)-6-(trifluoromethyl)pyridine-3-carboxamide] | < 500 nM |
| Cc1cc(F)ccc1Oc1cc(C(F)(F)F)ncc1C(=O)Nc1ccnnc1 [Example 95, 4-(4-fluoro-2-methyl-phenoxy)-N-pyridazin-4-yl-6-(trifluoromethyl)pyridine-3-carboxamide] | < 500 nM |
| O=C(Nc1ccnnc1)c1cnc(C(F)(F)F)cc1Oc1ccc(OC(F)(F)F)cc1 [Example 96, N-pyridazin-4-yl-4-[4-(trifluoromethoxy)phenoxy]-6-(trifluoromethyl)pyridine-3-carboxamide] | 500 to 1000 nM |
| O=C(Nc1ccnnc1)c1cnc(C(F)(F)F)cc1Oc1ccc(OC(F)F)cc1 [Example 97, 4-[4-(difluoromethoxy)phenoxy]-N-pyridazin-4-yl-6-(trifluoromethyl)pyridine-3-carboxamide] | > 1000 nM |
| O=C(Nc1ccnnc1)c1cnc(C(F)(F)F)cc1Oc1ccc(OC(F)(F)F)cc1Cl [Example 98, 4-[2-chloro-4-(trifluoromethoxy)phenoxy]-N-pyridazin-4-yl-6-(trifluoromethyl)pyridine-3-carboxamide] | < 500 nM |
| COc1ccc(Oc2cc(C(F)(F)F)ncc2C(=O)Nc2ccnnc2)c(OC)c1 [Example 99, 4-(2,4-dimethoxyphenoxy)-N-pyridazin-4-yl-6-(trifluoromethyl)pyridine-3-carboxamide] | < 500 nM |
| O=C(Nc1ccnnc1)c1cnc(C(F)(F)F)cc1Oc1ccc(F)cc1F [Example 100, 4-(2,4-difluorophenoxy)-N-pyridazin-4-yl-6-(trifluoromethyl)pyridine-3-carboxamide] | > 1000 nM |
| COc1ccc(Oc2cc(C(F)(F)F)ncc2C(=O)Nc2cccc(S(C)(=N)=O)c2)c(OC)c1 (stereo not shown) [Example 102, 4-(2,4-dimethoxyphenoxy)-N-[3-(methylsulfonimidoyl)phenyl]-6-(trifluoromethyl)pyridine-3-carboxamide] | > 1000 nM |
| CS(=N)(=O)c1cccc(NC(=O)c2cnc(C(F)(F)F)cc2Oc2ccc(F)cc2F)c1 (stereo not shown) [Example 103, 4-(2,4-difluorophenoxy)-N-[3-(methylsulfonimidoyl)phenyl]-6-(trifluoromethyl)pyridine-3-carboxamide] | > 1000 nM |
| COc1cc(NC(=O)c2cc(C(F)(F)F)cnc2Oc2ccc(F)cc2C)ccn1 [Example 109, 2-(4-fluoro-2-methyl-phenoxy)-N-(2-methoxy-4-pyridyl)-5-(trifluoromethyl)pyridine-3-carboxamide] | > 1000 nM |
| Cc1cc(F)ccc1Oc1ncc(C(F)(F)F)cc1C(=O)Nc1cc[nH]c(=O)c1 [Example 110, 2-(4-fluoro-2-methyl-phenoxy)-N-(2-oxo-1H-pyridin-4-yl)-5-(trifluoromethyl)pyridine-3-carboxamide] | > 1000 nM |
| COc1cc(F)ccc1Oc1ncc(Br)cc1C(=O)Nc1cccc(S(C)(=O)=O)c1 [Example 111, 5-bromo-2-(4-fluoro-2-methoxy-phenoxy)-N-(3-methylsulfonylphenyl)pyridine-3-carboxamide] | > 1000 nM |
| COc1cc(F)ccc1Oc1ncc(C2CC2)cc1C(=O)Nc1cccc(S(C)(=O)=O)c1 [Example 112, 5-cyclopropyl-2-(4-fluoro-2-methoxy-phenoxy)-N-(3-methylsulfonylphenyl)pyridine-3-carboxamide] | > 1000 nM |
